The values that follow come from patent US4542141A, “Compound having vasodilating, antiaggregating and hypocholesterolemic activities, process for the preparation thereof and pharmaceutical compositions therefrom” (Edmond Pharma s.r.l., priority 1982, dated 1985).

Data set [1] can be described thus: Acute toxicity in the mouse (LD50, Probits method). The following applies: in vivo. The procedure:
(§1) The study has been performed using whitish Swiss mice weighing about 20 g and Wistar rats, in the phase of weight increase, weighing about 150 g, of both sexes. The product has been administered to fasted animals (2 hours for mice and 18 hours for rats) by gastric tube (oral route) or intraperitoneal injection. Sulfipyrazone has been used as reference drug.
(§2) For the statistic calculation of LD50 and of the respective confidence limits for p=0.05, the Probits method was followed (Finney D. J.--Probit analysis-Cambridge Univ. Press, London and New York, 1952), taking into account the death rates in the 8 days following the treatments.

A short description of data set [2]: Acute toxicity in the rat (LD50, Probits method). As to conditions: in vivo. As to the method:
as §1, §2

Data set [3] has as its system cutaneous temperature of the paw. Briefly: Vasodilating action in the mouse (cutaneous temperature of the paw). Type of data set: in vivo, Swiss male whitish mice. The following applies: for mean variation of the cutaneous temperature in the 3h following the treatment: in °C (unit assumed). As to the method:
Swiss male whitish mice weighing about 20 g have been used. The cutaneous temperature of the paw has been measured, in conditioned room by means of a suitable thermometric equipment, (a) for three times, at 30 minutes intervals, before treatment (basal temperature), and (b) every 30 minutes in the three hours following the drugs treatment.

For data set [4], the system named is thrombocytopenia induced by Arthus reaction. The data set can be described thus: Inhibition of the thrombocytopenia induced by Arthus reaction in the guinea-pig. Type of data set: in vivo, guinea pigs. As to conditions: guinea pig after antigenic reaction, 100 mg/kg os; for % inhibition: thrombocytopenia. The text has this:
The method described by White and Butler (Thromb. Diath. Haemorr., 34, 533, 1975) has been used.

Data set [5] deals with platelet aggregation induced by adrenaline. The data set can be described thus: "Ex vivo" platelet antiaggregating action. Type of data set: in vivo, rabbits. The following applies: rabbit PRP, 35 mcg/ml adrenaline. The text has this:
By this test, the effect of VQG 582, acetylsalicylic acid or sulfinpyrazone pretreatment of rabbits on the platelet aggregation induced on the PRP of these animals by 35 mcg/ml adrenaline, has been valued.

Data set [6] can be described thus: Hypocholesterolemic action in rats fed with Nath's diet. The data set is classed as in vivo. As to conditions: 200 mg/kg per os, 40 days.
Method: 24 Hours after the last administration, the survived animals have been sacrificed and the dosage of total serum cholesterol, serum triglycerides, serum phospholipids and serum free fatty acids has been performed according to the methods described by Abell et al. (J. Biol. Chem., 195, 375, 1952), VAN HANDALL et al. (J. Lab. Clin. Med., 50, 152, 1957), MORRISON (Anal. Biochem., 7, 218, 1964), DOLE AND MEINERTZ (J. Biol. Chem., 235, 2595, 1960).
The livers were withdrawn and weighed, homogenized and extracted in soxhlet. The extracted lipids, evaporated, have been weighed and expresses as % of fresh organ.
For data set [7] the following is noted: rat, in vivo.
A short description of data set [8]: Pharmacokinetics in the rat by the oral route. The following applies: equimolar doses, compared with VQG 582.
[9] abbreviates: ip, intraperitoneal route, female.
[10] abbreviates: ip, intraperitoneal route, male.

Each structure is given as a SMILES string. Where only a bound is given, the exact number is not on record here.

Broadly, the LD50 is the dose expected to kill half of the subjects tested. Low readings indicate greater toxicity, high ones lower toxicity. The term % inhibition denotes the percentage by which the read-out fell short of the control. For the molecule `O=C1C(CC[S+]([O-])c2ccccc2)C(=O)N(c2ccccc2)N1c1ccccc1` (centres unmarked) [sulfinpyrazone, 1,2-diphenyl-4-[2-(phenylsulfinyl)ethyl]-pyrazoline-3,5-dione], the LD50 at 192 h in data set [1] (setting [9]) came to 159 mg/kg; in data set [1] (setting [10]) it was 163 mg/kg; in data set [1] (po, female) it was 335 mg/kg; in data set [1] (po, male), 368 mg/kg; in data set [2] (setting [9]), 157 mg/kg; in data set [2] (setting [10]), 149 mg/kg. The LD50 at 192 h in data set [2] (po, female) turned out to be 390 mg/kg; in data set [2] (po, male) it was 348 mg/kg. Moreover, the “mean variation of the cutaneous temperature in the 3h following the treatment” value (from here on “mean variation”) in data set [3] (100 mg/kg os) is listed as “+0.05”. The “N. platelets ± S.E.” value in data set [4] was 204.3 10^3 /mm^3. Besides, in data set [4], the “% inhibition” value is 63.1%. Further, the inhibition % in data set [5] (40 mg/kg os) is recorded as 5%; in data set [5] (80 mg/kg os), 30%; in data set [5] (120 mg/kg os) it was 70%.
For `O=C(O)c1cccnc1` [nicotinic acid], in data set [3] (50 mg/kg os), the max. effect time came out at 30 min and the “mean variation” value is on record as “+0.75”. For the same molecule, in data set [6], the “% dead animals” value is recorded as 10%, the serum cholesterol is listed as 324.3 mg/100 ml, the “serum free fatty acids” value is 0.39 mg/100 ml and the serum phospholipids turned out to be 161.7 mg/100 ml. The AUC result in data set [7] (po) is “AUC superimposable to VQG 582”. For the same molecule, in data set [8], the absorption result is listed as “faster absorption”.
With `CC(=O)Oc1ccccc1C(=O)O` [ASA, acetylsalicylic acid], the inhibition % was 30% in data set [5] (50 mg/kg os), 70% in data set [5] (75 mg/kg os) and 100% in data set [5] (100 mg/kg os).
Consider `O=C(OCC1(CC[S+]([O-])c2ccccc2)C(=O)N(c2ccccc2)N(c2ccccc2)C1=O)c1cccnc1` (centres unmarked) [VQG 582, 1,2-diphenyl-4-[2-(phenylsulfinyl)-ethyl]-4-(nicotinoyloxymethyl)-pyrazolidine-3,5-dione], for which the LD50 at 192 h is 3250 mg/kg in data set [1] (setting [9]); 3130 mg/kg in data set [1] (setting [10]); over 4000 mg/kg in data set [1] (po, female); over 4000 mg/kg in data set [1] (po, male); 2320 mg/kg in data set [2] (setting [9]); 2690 mg/kg in data set [2] (setting [10]). Also, the LD50 at 192 h in data set [2] (po, female) was over 4000 mg/kg; in data set [2] (po, male), over 4000 mg/kg. Besides, the max. effect time in data set [3] (100 mg/kg os) came out at 60 min. Further, the “mean variation” value in data set [3] (100 mg/kg os) was “+0.60”. For the same molecule, the “N. platelets ± S.E.” value in data set [4] is given as 218.5 10^3 /mm^3. Also, the “% inhibition” value in data set [4] came to 70.2%. Further, the figures for the inhibition % in data set [5] (40 mg/kg os), in data set [5] (80 mg/kg os) and in data set [5] (120 mg/kg os) were 15%, 70% and 85%, respectively. In addition, the “% dead animals” value in data set [6] is recorded as 10%. Moreover, the serum cholesterol in data set [6] is on record as 294.1 mg/100 ml. In data set [6], the “serum free fatty acids” value is recorded as 0.31 mg/100 ml. The molecule further came in with a serum phospholipids in data set [6] of 157.1 mg/100 ml. This molecule also showed a serum triglycerides in data set [6] of 113.8 mg/100 ml. The molecule further returned a liver lipids % in data set [6] (% of fresh organ) of 16.0%. Besides, the “pharmacological action after oral administration” value in data set [7] was “pharmacological action clearly delayed”. For the same molecule, the “blood concentrations expressed as sulfinpyrazone” value in data set [7] (po) is listed as “prolongation of the blood concentrations expressed as sulfinpyrazone”. The metabolism result in data set [7] (po) was “metabolized via an intermediate step, respectively to nicotinic acid and sulfinpyrazone”. Besides, in data set [7] (po), the “presence of unchanged compound in the plasma” value is on record as “found unchanged in the plasma 30 minutes to 1 hour after the treatment”.
